According to patent publication US9156860B2, “Boron-containing small molecules” (Anacor Pharmaceuticals, Inc., priority 2011, dated 2015):

What was measured:
[1] = system: adult American dog tick (Dermacentor variabilis); assay: Example 5: efficacy against adult American dog tick infestations on dogs; type: in vivo
Experimental: (§1) The therapeutic (knockdown) and residual efficacy of 7 and 8, each administered orally at a point dose of either 25 mg/kg or 50 mg/kg bodyweight, was evaluated against adult tick (Dermacentor variabilis and Rhipicephalus sanguineus) infestations on dogs. Twenty (20) male and female beagle dogs were allocated to one of five treatment groups, four (4) dogs per group: Untreated control; 7, 25 mg/kg; 7, 50 mg/kg; 8, 25 mg/kg; and 8, 50 mg/kg. On Day −1, all dogs were infested with approximately 50 unfed, adult D. variabilis ticks. On Day 0, dogs were orally administered gelatin capsules containing either 7 or 8 (50% technical active, 47% microcrystalline cellulose and 3% croscarmellose sodium, w/w) so as to achieve the desired point dosages. Ticks were counted and classified on all dogs, but not removed, on Day 1 (approximately 24 hours after treatment). On Day 2, approximately 48 hours after treatment, ticks were counted, classified and removed. Dogs were re-infested with the same number of D. variabilis ticks on Days 5, 12 and 19 with corresponding 48 hour post-infestation tick counts on Days 7, 14 and 21. Dogs were infested with approximately 50 unfed, adult brown dog ticks (Rhipicephalus sanguineus; approximately 50% male and 50% female) on Days 15 and 28, with corresponding 48 hour post-infestation tick counts on Days 17 and 30. GM percent efficacy of treatments against both tick species was calculated using the following formula: […]

[2] = system: cat flea (Ctenocephalides felis); assay: Example 4: efficacy against cat flea infestations on dogs; type: in vivo; settings: 25 mg/kg oral, solid dosage form, Day 32
Experimental: The therapeutic (knockdown) and residual efficacy of 7, administered orally at a point dosages of 5 and 25 mg/kg bodyweight, was evaluated against adult American dog tick (D. variabilis) and cat flea (C. felis) infestations on dogs. Sixteen (16) male and female beagle dogs were allocated to one of four treatment groups: Untreated control group (n=4 dogs); 7, 5 mg/kg liquid oral dosage form (n=4 dogs); 7, 25 mg/kg liquid oral dosage form (n=4 dogs); and 7, 25 mg/kg solid oral dosage form. Liquid dosage forms were prepared by dissolving 7 in a solution of 55% polyethylene glycol-300, 35% propylene glycol and 10% water at 25 mg/ml. Solid oral dosage form was prepared by thoroughly mixing 7 with microcrystalline cellulose and croscarmellose sodium (50:47:3, w/w) and placing into size 00 gelatin capsules. On Day 0, all dogs were orally administered 7 at the prescribed point dosages. […]
The total number of live ticks or fleas (normal plus moribund classification) present on each dog was determined for each interval, and this number was transformed using the natural logarithm transformation plus one (Ln count+1); addition of one to each count served to adjust for counts that were zero. […] GM percent efficacy of treatments was calculated using the following formula: […]

[3] = system: adult American dog tick (Dermacentor variabilis); assay: Example 6: efficacy against adult American dog tick infestations on dogs, 48 h and 72 h counts; type: in vivo; settings: 50 mg/kg oral
Experimental: […] Twelve (12) male and female beagle dogs were allocated to three treatment groups: Untreated, negative control A; 7 group B; and 7 group C (n=4 dogs per group). Dogs were infested with approximately 50 unfed, adult D. variabilis ticks on Days −1, 5, 12, 19 and 28. For 7 group B dogs, tick counts and classification were conducted at 48 hour post-treatment or post-infestation intervals on Days 2, 7, 14, 21 and 30. For negative control group A and 7 group C dogs, tick counts and classification were conducted at 72 hour post-treatment or post-infestation intervals on Days 3, 8, 15, 22 and 31. On Day 0, dogs in groups B and C were orally administered gelatin capsules containing 7 (50% technical active, 47% microcrystalline cellulose and 3% croscarmellose sodium, w/w) at a point dose of 50 mg/kg. Both 48 hour and 72 hour counts in the treated groups were adjusted to counts from the same 72 hour negative control group. GM percent efficacy of treatments was calculated using the following formula:

[4] = Tolerability of oral treatment in dogs; type: in vivo, beagle dogs
Experimental: The therapeutic (knockdown) and residual efficacy of 7, administered orally at a point dosages of 5 and 25 mg/kg bodyweight, was evaluated against adult American dog tick (D. variabilis) and cat flea (C. felis) infestations on dogs. Sixteen (16) male and female beagle dogs were allocated to one of four treatment groups: Untreated control group (n=4 dogs); 7, 5 mg/kg liquid oral dosage form (n=4 dogs); 7, 25 mg/kg liquid oral dosage form (n=4 dogs); and 7, 25 mg/kg solid oral dosage form. Liquid dosage forms were prepared by dissolving 7 in a solution of 55% polyethylene glycol-300, 35% propylene glycol and 10% water at 25 mg/ml. Solid oral dosage form was prepared by thoroughly mixing 7 with microcrystalline cellulose and croscarmellose sodium (50:47:3, w/w) and placing into size 00 gelatin capsules. On Day 0, all dogs were orally administered 7 at the prescribed point dosages. Twenty-four (24) hours before treatment (Day −1), all dogs were infested with approximately 50 unfed, adult-stage American dog ticks (D. variabilis; approximately 50% male and 50% female). On Day 2, approximately 48 hours after treatment, ticks were removed and counts were conducted to determine the number and life-status classification of ticks present on all dogs (normal, moribund or dead; attached or detached). For all groups, dogs were re-infested with approximately 50 unfed, adult D. variabilis ticks on Days 5 and 12, with tick classification, counts and removal on Days 7 and 14 (approximately 48 hours after each infestation). For negative control and 7 (25 mg/kg solid oral dosage form) groups, dogs were re-infested with approximately 50 unfed, adult D. variabilis ticks on Days 19 and 28, with tick classification, counts and removal on Days 21 and 30. Immediately following removal of ticks on Day 30, dogs in the negative control and 7 (25 mg/kg solid oral dosage form) groups were infested with approximately 100 unfed, adult cat fleas (C. felis). Flea counts were conducted approximately 48 hours later, on Day 32.
as §1
The efficacy of 7, administered orally at a point dose of 25 mg/kg bodyweight, was evaluated against adult tick (Dermacentor variabilis) infestations. Twelve (12) male and female beagle dogs were allocated to three treatment groups: Untreated, negative control A; 7 group B; and 7 group C (n=4 dogs per group). Dogs were infested with approximately 50 unfed, adult D. variabilis ticks on Days −1, 5, 12, 19 and 28. […]

CC1(C)OB(O)c2ccc(C3=NOC(c4cc(Cl)c(Cl)c(Cl)c4)(C(F)(F)F)C3)cc21 (racemic) [Compound 7, 3,3-Dimethyl-5-(5-(3,4,5-trichlorophenyl)-5-(trifluoromethyl)-4,5-dihydroisoxazol-3-yl)benzo[c][1,2]oxaborol-1(3H)-ol]
% efficacy ([1]; 25 mg/kg oral capsule, Day 1): (90.4) % | Geometric mean group live tick count ([1]; 25 mg/kg oral capsule, Day 1): 1.0 | Geometric mean group live tick count ([1]; 25 mg/kg oral capsule, Day 2): 0.0 | Geometric mean group live tick count ([1]; 25 mg/kg oral capsule, Day 7): 0.7 | % efficacy ([1]; 25 mg/kg oral capsule, Day 14): (67.6) % | Geometric mean group live tick count ([1]; 25 mg/kg oral capsule, Day 14): 5.3 | % efficacy ([1]; 25 mg/kg oral capsule, Day 21): (71.1) % | Geometric mean group live tick count ([1]; 25 mg/kg oral capsule, Day 21): 4.7 | % efficacy ([1]; 50 mg/kg oral capsule, Day 1): (83.0) % | Geometric mean group live tick count ([1]; 50 mg/kg oral capsule, Day 1): 1.8 | Geometric mean group live tick count ([1]; 50 mg/kg oral capsule, Day 2): 0.0 | Geometric mean group live tick count ([1]; 50 mg/kg oral capsule, Day 7): 0.4 | % efficacy ([1]; 50 mg/kg oral capsule, Day 14): (88.5) % | Geometric mean group live tick count ([1]; 50 mg/kg oral capsule, Day 14): 1.9 | % efficacy ([1]; 50 mg/kg oral capsule, Day 21): (80.1) % | Geometric mean group live tick count ([1]; 50 mg/kg oral capsule, Day 21): 3.2 | Geometric mean group live flea count [2]: 3.9 | Geometric mean group live tick count ([3]; Week 0, 48 h count (Day 2)): 0.3 | Geometric mean group live tick count ([3]; Week 0, 72 h count (Day 3)): 0.0 | % efficacy ([3]; Week 1, 48 h count (Day 7)): (85.1) % | Geometric mean group live tick count ([3]; Week 1, 48 h count (Day 7)): 2.6 | % efficacy ([3]; Week 1, 72 h count (Day 8)): (100) % | Geometric mean group live tick count ([3]; Week 1, 72 h count (Day 8)): 0.0 | % efficacy ([3]; Week 2, 48 h count (Day 14)): (78.3) % | Geometric mean group live tick count ([3]; Week 2, 48 h count (Day 14)): 6.1 | % efficacy ([3]; Week 2, 72 h count (Day 15)): (99.3) % | Geometric mean group live tick count ([3]; Week 2, 72 h count (Day 15)): 0.2 | % efficacy ([3]; Week 3, 48 h count (Day 21)): (13.0) % | Geometric mean group live tick count ([3]; Week 3, 48 h count (Day 21)): 10.7 | % efficacy ([3]; Week 3, 72 h count (Day 22)): (100) % | Geometric mean group live tick count ([3]; Week 3, 72 h count (Day 22)): 0.0 | % efficacy ([3]; Week 4, 48 h count (Day 30)): (35.5) % | Geometric mean group live tick count ([3]; Week 4, 48 h count (Day 30)): 16.3 | Geometric mean group live tick count ([3]; Week 4, 72 h count (Day 31)): 0.8 | Residual efficacy using 72 hour count intervals ([3]; through week 3 (Day 22)): > 99% | Residual efficacy at 48 hour intervals ([3]; through week 4 (Day 30)): < 90% | tolerability ([4]; oral 25 mg/kg, Example 7): well tolerated | tolerability ([4]; oral 50 mg/kg, Example 6): well tolerated | tolerability ([4]; oral 5 or 25 mg/kg, Example 4): well tolerated | tolerability ([4]; oral 25 or 50 mg/kg, Example 5): well tolerated
